Measured values published in patent US20240082222A1, “4-CHLORO-N-[2-[(4-CHLOROPHENYL)METHYL]-3-OXO-1,2,4-THIADIAZOL-5-YL]BENZAMIDE FOR USE IN MEDICINE” (Betagenon AB, priority 2021, published 2024).
Several values for one entry are separate records, joined by “and”; a condition that tells them apart may be missing. Equal entries are not always repeated. Structures can show the parent of a compound that is named as a salt. Where two headings read alike, the source gives them in different places.

Experiment: Pharmacokinetic study in humans, sodium salt in enteric capsules, single and multiple dose (Example 2)
Type: in vivo, human
Conditions: for AUClast_D / Cmax D / AUC_TAU_D: dose-normalised; for AUC(0-t) / Cmax / Tmax / AUC / concentration at 24 h: human, plasma, oral; for Cmax: read-out: Cmax; for Tmax: read-out: Tmax; for concentration at 24 h: read-out: Clast
Description: An open, randomised, parallel-group study in healthy volunteers (hereafter referred to as subjects) was conducted to evaluate the exposure of 4-chloro-N-[2-[(4-chlorophenyl)methyl]-3-oxo-1,2,4-thiadiazol-5-yl]benzamide after single and multiple dose administration of 3 dose levels of the sodium salt of 4-chloro-N-[2-[(4-chlorophenyl)methyl]-3-oxo-1,2,4-thiadiazol-5-yl]benzamide and to evaluate combination with dapagliflozin at steady state.
For the study, Vcaps enteric capsules, size 0, were individually filled with 200 mg of milled test material together with 2 mg of sodium docusate, 125 mg of mannitol and 6.5 mg of sodium lauryl sulfate. […]
A screening visit (Visit 1) was performed within 28 days before randomisation and the start of IMP administration. The subjects were confined to the research clinic from the evening before Day 1 (Visit 2; Day—1). […]
Pre-dose safety assessments as well as pre- and post-dose PK assessments were performed. The subjects left the clinic after the last PK-sample on Day 1 and returned for a 24 h PK sample and dosing on Day 2 (Visit 3).
Subjects self-administered the test material at home from Day 3 to Day 15. A telephone visit to check compliance, AE status and use of concomitant medications will be performed on Day 8 (Visit 4).
The subjects returned to the clinic on Days 16 and 17 (Visits 5 and 6), for PK sampling and AE assessment. Visit 6 continued in the evening of Day 17, when the subjects were confined to the clinic until Day 18. On Day 18, pre- and post-dose PK and safety assessments were performed. The subjects left the clinic after the last PK sample on Day 18 and returned for a 24 h PK sample and dosing on Day 19 (Visit 7).
On Day 19 (Visit 7) subjects began co-administration of the test material and dapagliflozin (Forxiga), 10 mg per day for 7 days (Day 19 to Day 25). The subjects returned to the clinic on Day 25 (Visit 8) for final dosing, PK and safety assessments. A final end-of-study visit (Visit 9) for follow-up of safety assessments was conducted 28 days (+14 days) after Visit 8 or after early withdrawal.
Venous blood samples (approximately 5 mL) for the determination of plasma concentrations of 4-chloro-N-[2-[(4-chlorophenyl)methyl]-3-oxo-1,2,4-thiadiazol-5-yl]benzamide after administration of the test material were collected through an indwelling venous catheter on Days 1, 2, 16 to 19 and 25.
The blood samples were collected in pre-labelled Li-Heparin tubes. All the collected blood samples were be centrifuged at 1500 G for 10 minutes to separate plasma within 60 minutes from the sample is drawn. The separated plasma from each blood sample was be divided into 2 aliquots in pre-labelled polypropylene cryotubes (A and B samples, approximately 750 μL in each tube) and frozen at <−70° C. On Day 25, the plasma was divided in to 3 aliquots of at least 500 μL (A and B samples for the test material, and 1 sample for potential future analysis of dapagliflozin).
Samples for determination of plasma concentrations of 4-chloro-N[2-[(4-chlorophenyl)methyl]-3-oxo-1,2,4-thiadiazol-5-yl]benzamide were analysed by Lablytica Life Science AB, Uppsala, Sweden by means of a validated LS-MS/MS method.
The data of plasma concentration to respective time points for the analyte (4-chloro-N-[2-[(4-chlorophenyl)methyl]-3-oxo-1,2,4-thiadiazol-5-yl]benzamide) were used for the pharmacokinetic analysis. Pharmacokinetic analysis was performed using non-compartmental analysis (NCA) module of Phoenix WinNonlin 8.1 software to determine the following pharmacokinetic parameters.
After single dose administration of test material: • AUC0-24, Cmax, Tmax and dose proportionality (based on AUC0-24 and Cmax) (secondary endpoints). […]

[1] = 2000 mg Dose Group, capsule once daily, Day 18, Mean
[2] = 2000 mg Dose Group, capsule once daily, Day 18, Median
[3] = capsule once daily, Day 18, individual subjects, listed as test material
[4] = 200 mg, mean, dose group 200, capsule, Day 1
[5] = 200 mg, mean, dose group 200, capsule, Day 18
[6] = 400 mg, 400 mg Dose Group, capsules once daily, Day 18, Geometric Mean
[7] = 400 mg, 400 mg Dose Group, capsules once daily, Day 18, Mean
[8] = 400 mg, 400 mg Dose Group, capsules once daily, Day 18, Median
[9] = 400 mg, 400 mg Dose Group, capsules once daily, Day 18, individual subjects
[10] = 400 mg, mean, dose group 400, capsule, Day 1
[11] = 400 mg, mean, dose group 400, capsule, Day 18
[12] = 800 mg, 800 mg Dose Group, capsules once daily, Day 18, Geometric Mean
[13] = 800 mg, 800 mg Dose Group, capsules once daily, Day 18, Mean
[14] = 800 mg, 800 mg Dose Group, capsules once daily, Day 18, Median
[15] = 800 mg, 800 mg Dose Group, capsules once daily, Day 18, individual subjects
[16] = 800 mg, mean, dose group 800, capsule, Day 1
[17] = 800 mg, mean, dose group 800, capsule, Day 18
[18] = 2000 mg, 2000 mg Dose Group, capsule once daily, Day 18, Geometric Mean
[19] = 2000 mg, 2000 mg Dose Group, capsule once daily, Day 18, Mean
[20] = 2000 mg, 2000 mg Dose Group, capsule once daily, Day 18, Median

AUClast_D [1]: 5.305 µg·h/mL/mg | Cmax D [1]: 0.2493 µg/mL/mg | AUC_TAU_D [2]: 4.752 µg·h/mL/mg | AUClast_D [2]: 4.888 µg·h/mL/mg | Cmax D [2]: 0.2403 µg/mL/mg | AUC(0-t) [4]: 87.4 µg·h/mL | Cmax [4]: 7.19 µg/mL | Tmax [4]: 15 h | AUC(0-t) [5]: 1060 µg·h/mL | Cmax [5]: 49.9 µg/mL | Tmax [5]: 8.03 h | Cmax (200 mg, repeated dosing, study of Example 2): ~50 µg/mL | AUC [6]: 1500 µg·h/mL | AUC(0-t) [6]: 1520 µg·h/mL | Cmax [6]: 69.6 µg/mL | Tmax [6]: 4.27 h | AUC [7]: 1530 µg·h/mL | AUC(0-t) [7]: 1540 µg·h/mL | Cmax [7]: 70.8 µg/mL | Tmax [7]: 8.31 h | AUC [8]: 1400 µg·h/mL | AUC(0-t) [8]: 1480 µg·h/mL | Cmax [8]: 66.1 µg/mL | Tmax [8]: 5 h | AUC [9]: 1210 µg·h/mL | AUC(0-t) [9]: 1210 µg·h/mL | Cmax [9]: 56.2 µg/mL | AUC(0-t) [10]: 158 µg·h/mL | Cmax [10]: 10.6 µg/mL | Tmax [10]: 15.4 h | AUC(0-t) [11]: 1540 µg·h/mL | Cmax [11]: 70.8 µg/mL | Tmax [11]: 8.31 h | AUC [12]: 2530 µg·h/mL | AUC(0-t) [12]: 2590 µg·h/mL | concentration at 24 h [12]: 108 µg/mL | Cmax [12]: 118 µg/mL | AUC [13]: 2560 µg·h/mL | AUC(0-t) [13]: 2620 µg·h/mL | concentration at 24 h [13]: 110 µg/mL | Cmax [13]: 118 µg/mL | Tmax [13]: 11.5 h | AUC [14]: 2730 µg·h/mL | AUC(0-t) [14]: 2670 µg·h/mL | concentration at 24 h [14]: 115 µg/mL | Cmax [14]: 122 µg/mL | Tmax [14]: 9.99 h | AUC [15]: 1810 µg·h/mL | AUC(0-t) [15]: 1800 µg·h/mL | concentration at 24 h [15]: 73.7 µg/mL | Cmax [15]: 87.3 µg/mL | AUC(0-t) [16]: 340 µg·h/mL | Cmax [16]: 22.8 µg/mL | Tmax [16]: 15.6 h | AUC(0-t) [17]: 2620 µg·h/mL | Cmax [17]: 118 µg/mL | Tmax [17]: 11.5 h | AUC [18]: 987 µg·h/mL | AUC(0-t) [18]: 1030 µg·h/mL | Cmax [18]: 48.6 µg/mL | AUC [19]: 1020 µg·h/mL | AUC(0-t) [19]: 1060 µg·h/mL | concentration at 24 h [19]: 44 µg/mL | Cmax [19]: 49.9 µg/mL | Tmax [19]: 8.03 h | AUC [20]: 950 µg·h/mL | AUC(0-t) [20]: 978 µg·h/mL | Cmax [20]: 48.1 µg/mL | Tmax [20]: 6.5 h | peak blood plasma concentration (repeated dosing of 200 mg in the form of a capsule): ≥ 50 µg/mL | blood plasma concentration versus same amount of free base form (repeated dosing, 200 to 1000 mg/day): approximately five-fold higher
SMILES: O=C(Nc1nc(=O)n(Cc2ccc(Cl)cc2)s1)c1ccc(Cl)cc1 [Compound of formula II, sodium salt of 4-chloro-N-[2-[(4-chlorophenyl)methyl]-3-oxo-1,2,4-thiadiazol-5-yl]benzamide]
AUC_TAU_D (2000 mg Dose Group, capsule once daily, Day 18, individual subjects, listed as test material): 5.67 µg·h/mL/mg and 4.2 µg·h/mL/mg and 8.01 µg·h/mL/mg and 4.01 µg·h/mL/mg and 4.75 µg·h/mL/mg and 3.87 µg·h/mL/mg and 5.06 µg·h/mL/mg | AUClast_D [3]: 5.65 µg·h/mL/mg and 6.98 µg·h/mL/mg and 4.19 µg·h/mL/mg and 7.98 µg·h/mL/mg and 4 µg·h/mL/mg and 4.74 µg·h/mL/mg and 3.86 µg·h/mL/mg and 5.04 µg·h/mL/mg | Cmax D [3]: 0.261 µg/mL/mg and 0.31 µg/mL/mg and 0.21 µg/mL/mg and 0.36 µg/mL/mg and 0.201 µg/mL/mg and 0.231 µg/mL/mg and 0.173 µg/mL/mg and 0.25 µg/mL/mg
